Where only a bound is given, the exact number is not on record here.

This passage reports EC50 results from ChEMBL document CHEMBL3886543, “Quinoline derivatives useful as CB-1 inverse agonists” (2016).

Assay [1] concerns the target T1, Cannabinoid receptor 1 (Homo sapiens, UniProt P21554). As to the kind of experiment: Membranes were purchased from Perkin Elmer.
The target of assay [2] is T2, Cannabinoid receptor 2 (Homo sapiens, UniProt P34972). As to the kind of experiment: (§1) cAMP Assay: The following mixtures and buffer solutions were prepared: (a) Buffer 1: HBSS (Mediatech Cat#21-023-CV) with 5 mM HEPES (1 mM stock, Gibco BRL Cat#15630-056) and 0.1% BSA (7.5% stock, Invitrogen Cat#15260-037); (b) Buffer 2: 0.5 mM IBMX (200 mM stock in DMSO, Sigma 15879) in Buffer 1; (c) 1 uM cAMP Standard (50 uM stock, Perkin Elmer Cat# AD0262) diluted in Buffer 2 and serially diluted in Buffer 2, 12 doses at 1/2 dilutions resulting in a dose range of 1 uM to 0.5 nM; (d) d2 labelled cAMP (CisBio HTRF Detection Kit Cat #62AM4PEB reconstituted with 6 ml dH2O) diluted 1/20 with lysis buffer (CisBio HTRF Detection Kit Cat #62AM4PEB); (e) anti-cAMP (CisBio HTRF Detection Kit Cat #62AM4PEB reconstituted with 5 ml dH2O) diluted 1/20 with lysis buffer (CisBio HTRF Detection Kit Cat #62AM4PEB); and (f) Forskolin (Sigma Cat# F6886, 10 mM in DMSO) diluted first in DMSO to 1 mM and then to 1.5 uM in Buffer 2. In kind it is functional. In general terms: TR-FRET usually uses a lanthanide donor and a delayed reading to cut background.

For assay [3], the target named is T1, Cannabinoid receptor 1. Described as §1. In kind it is functional.
Assay [4] deals with T2, Cannabinoid receptor 2. Nature of the assay: Membranes were prepared as described in FELDER, C. C., et al., Molecular Pharmacology, 1992, pp 838-845, Vol. 42.

T1 sequence (P21554 whole entry): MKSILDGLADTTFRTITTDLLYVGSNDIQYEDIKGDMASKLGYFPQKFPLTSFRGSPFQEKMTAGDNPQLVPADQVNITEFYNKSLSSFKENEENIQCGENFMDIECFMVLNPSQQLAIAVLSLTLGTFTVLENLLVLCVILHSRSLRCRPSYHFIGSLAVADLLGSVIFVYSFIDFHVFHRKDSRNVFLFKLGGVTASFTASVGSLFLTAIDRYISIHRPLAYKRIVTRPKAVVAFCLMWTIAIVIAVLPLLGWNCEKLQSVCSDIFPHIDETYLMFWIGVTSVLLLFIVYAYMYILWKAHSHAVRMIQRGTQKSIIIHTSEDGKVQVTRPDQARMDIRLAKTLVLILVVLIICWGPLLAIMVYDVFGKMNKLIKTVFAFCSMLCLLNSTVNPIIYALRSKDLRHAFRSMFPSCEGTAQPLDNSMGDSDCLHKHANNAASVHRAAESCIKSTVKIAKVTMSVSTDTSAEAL
T2 sequence (P34972 whole entry): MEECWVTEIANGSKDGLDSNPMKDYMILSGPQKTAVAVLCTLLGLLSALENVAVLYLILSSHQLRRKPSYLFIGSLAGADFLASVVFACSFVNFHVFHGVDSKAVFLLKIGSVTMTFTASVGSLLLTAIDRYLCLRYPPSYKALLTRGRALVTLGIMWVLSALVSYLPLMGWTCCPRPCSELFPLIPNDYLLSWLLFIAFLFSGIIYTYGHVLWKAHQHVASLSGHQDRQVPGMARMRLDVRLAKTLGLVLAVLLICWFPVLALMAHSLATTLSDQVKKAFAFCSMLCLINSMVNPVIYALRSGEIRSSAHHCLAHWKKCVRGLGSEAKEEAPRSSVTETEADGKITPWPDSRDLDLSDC

In general, EC50 refers to the concentration that produces a half-maximal response. `O=c1cc(CCc2cccc(Cl)c2)c2cc(C(O)(c3ccc(Cl)cc3)c3nccs3)ccc2[nH]1` (centres undefined) returned an EC50 on Cannabinoid receptor 1 [1] above 2500 nM.

`O=c1cc(CCc2cccc(Cl)c2)c2cc(C(c3ccc(Cl)cc3)c3nccs3)ccc2[nH]1` (centres undefined) gave an EC50 on Cannabinoid receptor 1 [1] of 332 nM.

Turning to `OC(c1ccc(Cl)cc1)(c1ccc(Cl)cc1)c1ccc2nccc(/C=C/c3ccccc3)c2c1`, the midpoint of the response on Cannabinoid receptor 1 [1], the EC50, lay at 52.1 nM.

Consider `O=c1cc(Nc2ccc(Cc3ccccc3)cc2)c2cc(C(c3ccc(Cl)cc3)c3ccc(Cl)cc3)ccc2[nH]1`, for which the EC50 at Cannabinoid receptor 2 [2] was above 10000 nM; on Cannabinoid receptor 1 [3], 15 nM.

Molecule `OC(c1ccc(Cl)cc1)(c1ccsc1)c1ccc2nccc(/C=C/c3ccccc3)c2c1` (centres undefined) registered a concentration for a half-maximal effect (EC50) on Cannabinoid receptor 1 [1] of 223 nM.

For `O=c1cc(/C=C/c2ccc(C(F)(F)F)cc2)c2cc(C(c3ccc(Cl)cc3)c3nccs3)ccc2[nH]1` (centres undefined), the values for the concentration for a half-maximal effect (EC50) at Cannabinoid receptor 2 [2] and on Cannabinoid receptor 1 [3] were above 10000 nM and 397 nM, respectively.

For `Clc1ccc(C(c2ccc(Cl)cc2)c2ccc3nccc(/C=C/c4ccccc4)c3c2)cc1`, the EC50 on Cannabinoid receptor 1 [1] was determined as 4.1 nM.

The molecule `OC(c1ccc(Cl)cc1)(c1ccc2nccc(/C=C/c3ccccc3)c2c1)c1cccs1` (centres undefined) displayed an EC50 at Cannabinoid receptor 1 [1] of 101 nM.

With `O=c1cc(NC2CCN(S(=O)(=O)C(F)(F)F)CC2)c2cc(C(c3ccc(Cl)cc3)c3nccs3)ccc2[nH]1` (centres undefined), at Cannabinoid receptor 1 [1], the midpoint of the response, the EC50, lay at 4.4 nM.

In the case of `O=c1cc(/C=C/c2cccc(F)c2)c2cc(C(c3ccc(Cl)cc3)c3ccsc3)ccc2[nH]1` (centres undefined), the concentration giving a half-maximal response (EC50) on Cannabinoid receptor 1 [1] is 22 nM; on Cannabinoid receptor 2 [4] it was above 5000 nM.

Regarding `O=c1cc(Nc2ccc(F)c(Cl)c2)c2cc(C(c3ccc(Cl)cc3)c3ccc(Cl)cc3)ccc2[nH]1`, the 50% effective concentration (EC50) on Cannabinoid receptor 2 [2] was above 10000 nM; at Cannabinoid receptor 1 [3], 10 nM.

For the molecule `CC(C)(C)OC(=O)CN1CCC(Nc2cc(=O)[nH]c3ccc(C(c4ccc(Cl)cc4)c4ccc(Cl)cc4)cc23)CC1`, the concentration giving a half-maximal response (EC50) at Cannabinoid receptor 2 [2] was above 10000 nM; on Cannabinoid receptor 1 [3] it was 5 nM.

In the case of `N=C(N)N1CCC(Nc2cc(=O)[nH]c3ccc(C(c4ccc(Cl)cc4)c4ccc(Cl)cc4)cc23)CC1`, the EC50 on Cannabinoid receptor 2 [2] and on Cannabinoid receptor 1 [3] was above 10000 nM in each case.

Turning to `O=c1cc(/C=C/c2ccc(C(F)(F)F)cc2)c2cc(C(c3ccc(Cl)cc3)c3cccs3)ccc2[nH]1` (centres undefined), the EC50 at Cannabinoid receptor 1 [1] was 15.1 nM; at Cannabinoid receptor 2 [4] it was above 5000 nM.

As for `O=c1cc(NC2CCN(S(=O)(=O)C(F)(F)F)CC2)c2cc(C(c3ccc(Cl)cc3)c3ccc(Cl)cc3)ccc2[nH]1`, the figures for the EC50 on Cannabinoid receptor 1 [1] and at Cannabinoid receptor 2 [4] were 1.2 nM and 53 nM, respectively.

Consider `Clc1ccc(C(c2ccc3nccc(/C=C/c4ccccc4)c3c2)c2nccs2)cc1` (centres undefined), for which the concentration for a half-maximal effect (EC50) at Cannabinoid receptor 1 [1] is 55.1 nM; on Cannabinoid receptor 2 [4], above 5000 nM.

`Cn1c(=O)cc(CCc2cccc(Cl)c2)c2cc(C(c3ccc(Cl)cc3)c3nccs3)ccc21` (centres undefined) gave a concentration giving a half-maximal response (EC50) on Cannabinoid receptor 1 [1] above 2500 nM.

Take `CCOC(=O)CCCOc1ccc(Nc2cc(=O)[nH]c3ccc(C(c4ccc(Cl)cc4)c4ccc(Cl)cc4)cc23)cc1`: the EC50 is above 10000 nM at Cannabinoid receptor 2 [2] and 68 nM at Cannabinoid receptor 1 [3].

As for `O=c1cc(/C=C/c2ccccc2)c2cc(C(c3ccc(Cl)cc3)c3ccc(Cl)cc3)ccc2[nH]1`, the concentration for a half-maximal effect (EC50) on Cannabinoid receptor 1 [1] is 35.8 nM.

The molecule `Clc1ccc(C(c2ccc3nccc(/C=C/c4ccccc4)c3c2)c2cccs2)cc1` (centres undefined) returned an EC50 at Cannabinoid receptor 1 [1] of 97.3 nM.

Turning to `COc1ccc(C(O)(c2ccc3nccc(/C=C/c4ccccc4)c3c2)c2nccs2)cc1` (centres undefined), on Cannabinoid receptor 1 [1], the half-maximal effective concentration (EC50) was found to be 1870 nM.

The molecule `O=c1cc(/C=C/c2ccccc2)c2cc(C(c3ccc(Cl)cc3)c3nccs3)ccc2[nH]1` (centres undefined) gave an EC50 on Cannabinoid receptor 1 [1] of 34.6 nM.

Turning to `O=S(=O)(N1CCC(Nc2ccnc3c(NC4CCN(S(=O)(=O)C(F)(F)F)CC4)cc(C(c4ccc(Cl)cc4)c4ccc(Cl)cc4)cc23)CC1)C(F)(F)F`, the half-maximal effective concentration (EC50) on Cannabinoid receptor 2 [2] and on Cannabinoid receptor 1 [3] was above 14000 nM in each case.
